Experimental data as given in PubChem BioAssay (NCI).
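All cell lines were grown in 96-well plates and treated with compound for 48 hours. GI50 = concentration required for 50% inhibition of growth. TGI marks complete inhibition of growth.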

How the values were obtained:
Experiment in all cases: NCI-60 cell line screen, 48 h
NCI-H23 lung = test system: NCI-H23 lung
NCI-H460 lung = test system: NCI-H460 lung
NCI-H522 lung = test system: NCI-H522 lung
NCI/ADR-RES ovarian = test system: NCI/ADR-RES ovarian
OVCAR-3 ovarian = test system: OVCAR-3 ovarian
OVCAR-4 ovarian = test system: OVCAR-4 ovarian
OVCAR-5 ovarian = test system: OVCAR-5 ovarian
OVCAR-8 ovarian = test system: OVCAR-8 ovarian
PC-3 prostate = test system: PC-3 prostate
RPMI-8226 leukemia = test system: RPMI-8226 leukemia
RXF 393 renal = test system: RXF 393 renal
SF-268 CNS = test system: SF-268 CNS
SF-295 CNS = test system: SF-295 CNS
SF-539 CNS = test system: SF-539 CNS
SK-MEL-2 melanoma = test system: SK-MEL-2 melanoma
SK-MEL-28 melanoma = test system: SK-MEL-28 melanoma
SK-MEL-5 melanoma = test system: SK-MEL-5 melanoma
SK-OV-3 ovarian = test system: SK-OV-3 ovarian
SN12C renal = test system: SN12C renal
SNB-19 CNS = test system: SNB-19 CNS
SNB-75 CNS = test system: SNB-75 CNS
SW-620 colon = test system: SW-620 colon
T-47D breast = test system: T-47D breast
TK-10 renal = test system: TK-10 renal
U251 CNS = test system: U251 CNS
UACC-257 melanoma = test system: UACC-257 melanoma
UACC-62 melanoma = test system: UACC-62 melanoma
UO-31 renal = test system: UO-31 renal

SMILES: C=C1C(=O)O[C@@H]2C1CC(=O)C(C)CC/C=C(\C)CCC[C@H](C)[C@H]2OC(C)=O (stereo not given in full)
- TGI (NCI-H23 lung): 29.5 µM
- GI50 (NCI-H460 lung): 21.2 µM
- TGI (NCI-H460 lung): 43.6 µM
- GI50 (NCI-H522 lung): 15.9 µM
- TGI (NCI-H522 lung): 41.6 µM
- GI50 (NCI/ADR-RES ovarian): 15.3 µM
- TGI (NCI/ADR-RES ovarian): 40.9 µM
- GI50 (OVCAR-3 ovarian): 10.2 µM
- TGI (OVCAR-3 ovarian): 21.8 µM
- GI50 (OVCAR-4 ovarian): 15.2 µM
- TGI (OVCAR-4 ovarian): 32 µM
- GI50 (OVCAR-5 ovarian): 18 µM
- TGI (OVCAR-5 ovarian): 34.6 µM
- GI50 (OVCAR-8 ovarian): 17.9 µM
- TGI (OVCAR-8 ovarian): 41.1 µM
- GI50 (PC-3 prostate): 13.7 µM
- TGI (PC-3 prostate): 30.6 µM
- GI50 (RPMI-8226 leukemia): 3.99 µM
- TGI (RPMI-8226 leukemia): 19 µM
- GI50 (RXF 393 renal): 7.9 µM
- TGI (RXF 393 renal): 24.4 µM
- GI50 (SF-268 CNS): 20.5 µM
- TGI (SF-268 CNS): 41.3 µM
- GI50 (SF-295 CNS): 19.8 µM
- TGI (SF-295 CNS): 36.2 µM
- GI50 (SF-539 CNS): 18.3 µM
- TGI (SF-539 CNS): 34.6 µM
- GI50 (SK-MEL-2 melanoma): 17.6 µM
- TGI (SK-MEL-2 melanoma): 45.5 µM
- GI50 (SK-MEL-28 melanoma): 11.8 µM
- TGI (SK-MEL-28 melanoma): 25.3 µM
- GI50 (SK-MEL-5 melanoma): 11.5 µM
- TGI (SK-MEL-5 melanoma): 23.6 µM
- GI50 (SK-OV-3 ovarian): 17 µM
- TGI (SK-OV-3 ovarian): 34.1 µM
- GI50 (SN12C renal): 5.46 µM
- TGI (SN12C renal): 21.6 µM
- GI50 (SNB-19 CNS): 25.5 µM
- TGI (SNB-19 CNS): > 100 µM
- GI50 (SNB-75 CNS): 14.9 µM
- TGI (SNB-75 CNS): 29.8 µM
- GI50 (SW-620 colon): 9.18 µM
- TGI (SW-620 colon): 21.9 µM
- GI50 (T-47D breast): 20.4 µM
- TGI (T-47D breast): 58.5 µM
- GI50 (TK-10 renal): 1790 nM
- TGI (TK-10 renal): 8.43 µM
- GI50 (U251 CNS): 13.9 µM
- TGI (U251 CNS): 28.4 µM
- GI50 (UACC-257 melanoma): 18.4 µM
- TGI (UACC-257 melanoma): 36.6 µM
- GI50 (UACC-62 melanoma): 11.6 µM
- TGI (UACC-62 melanoma): 24.5 µM
- GI50 (UO-31 renal): 11.9 µM
- TGI (UO-31 renal): 29.5 µM
